In patent US11013705B2, “Methods and compositions for supporting renal health” (The Regents of the University of California, priority 2019, dated 2021):
Entries after “also recorded” stand apart in the source; their conditions may differ.

Tests used:
Han:SPRD rats [1] = assay: Oral BHB treatment in drinking water of juvenile Han:SPRD PKD rats, post-natal weeks 3-8; assay type: in vivo, rat
Experimental: Han:SPRD rats, a non-orthologous model of PKD with a mutation in Anks6 were placed on a time-restricted feeding (TRF) regime wherein TRF animals had access to food for an 8-h period within their 12-h dark cycle. Animals were treated for 5 weeks from post-natal weeks 3-8. […] Additionally, TRF-treated animals had increased levels of BHB and reduced blood glucose indicative of ketosis. Oral BHB Treatment Prevents Polycystic Disease Progression in Juvenile Rats. To investigate if BHB might affect PKD progression, Han:SPRD rats were treated with BHB from post-natal weeks 3-8 in the context of ad libitum feeding with normal, high-carbohydrate chow (NC). BHB was administered as a sodium and potassium salt in the drinking water ad libitum at a dose equivalent to that recommended as a dietary supplement in BHB supplement drinks. Control cohorts received either normal water or water supplemented with the molar equivalents of salt provided in the BHB supplement (a mixture of NaCl/KCl).

Han:SPRD rats [2] = assay: BHB, citrate and combined BHB-citrate treatment in drinking water of Han:SPRD PKD rats, post-natal weeks 3-8; assay type: in vivo, rat; details: for dose dependence of benefit on PKD progression: varying concentrations, citrate particularly at the 120 mM dosage
Experimental: To investigate BHB, citrate, and combined BHB and citrate effects on PKD progression, Han:SPRD rats were treated with BHB or a combination of BHB and citrate from post-natal weeks 3-8 in the context of ad libitum feeding with normal, high-carbohydrate chow (NC). In the BHB treatments, BHB was administered as a sodium and potassium salt in the drinking water ad libitum at a dose equivalent to that recommended as a dietary supplement in BHB supplement drinks. In the citrate treatments, citrate was administered as a combination of tripotassium citrate and citric acid at a (0.82/1) ratio at a dose equivalent to that recommended utilized in citrate dietary supplements. Control cohorts received either normal water or water supplemented with the molar equivalents of salt provided in the BHB or BHB-citrate supplements (a mixture of NaCl/KCl). […]

[3] = PKD rats, 5 weeks BHB in drinking water
[4] = PKD rats, 5 weeks BHB in drinking water, normal chow, vs water- and salt-treated controls

Row | Molecule | effect on body weight (Han:SPRD rats [1]; 5 weeks BHB in drinking water) | effect on wild-type kidneys and other organs (Han:SPRD rats [1]; 5 weeks BHB in drinking water) | fibrosis (Han:SPRD rats [1]; [3]) | kidney function (assessed by creatinine) (Han:SPRD rats [1]; [3]) | myofibroblasts (Han:SPRD rats [1]; [3]) | proliferation (Han:SPRD rats [1]; [3]) | 2-kidney to body weight ratio (Han:SPRD rats [1]; [4]) | cystic area (Han:SPRD rats [1]; [4]) | kidneys of PKD animals at the gross and histological level (Han:SPRD rats [1]; after 5 weeks of treatment) | effect on body weight (Han:SPRD rats [2]; 5 weeks in drinking water) | effect on wild-type kidneys and other organs (Han:SPRD rats [2]; 5 weeks in drinking water) | 2-kidney to body weight ratio (Han:SPRD rats [2]; PKD rats, 5 weeks, vs water- and salt-treated controls (FIG. 8A)) | cystic area (Han:SPRD rats [2]; PKD rats, 5 weeks, vs water- and salt-treated controls (FIG. 8B)) | kidneys of PKD animals at the gross and histological level (Han:SPRD rats [2]; after 5 weeks of treatment) | dose dependence of benefit on PKD progression (Han:SPRD rats [2])
1 | CC(O)CC(=O)O (stereo not drawn) [BHB, beta-hydroxybutyric acid] | no effect | Neither wild-type kidneys nor other organs were affected | strong reduction | improved | almost complete elimination; also recorded: almost complete absence | inhibition | striking and unexpected reductions | striking and unexpected reductions | nearly indistinguishable from kidneys of wild-type animals | no effect | Neither wild-type kidneys nor other organs were affected | striking reductions | striking reductions | nearly indistinguishable from kidneys of wild-type animals | dose-dependent benefits
2 | citrate |  |  |  |  |  |  |  |  |  |  |  |  |  |  | dose-dependent therapeutic effects
